Data set [1] has as its target T1, rat VR1 (Rattus norvegicus, UniProt O35433).
T1 construct: expressed in transfected cells
Put plainly: [3H]resiniferatoxin (RTX) competition binding assay, VR1-transfected CHO cells. As to the method:
The pUHG102 VR1 plasmid was transfected into CHO cells containing the pTet Off regulatory plasmid (Clontech). In these cells, expression of the VR1 is repressed in the presence of tetracycline but is induced upon removal of the antibiotic. Stable clones were isolated in culture medium containing puromycin (10 μg/mL) and maintained in HAM F12 medium supplemented with tetracycline (1 μg/mL), 5 μg/ml geniticin, 25 mM HEPES, 10% FBS. Cells utilized for assays were grown in culture medium without antibiotic for 48 h before use. Cells were seeded in T75 cell culture flasks in media without antibiotics and grown to approximately 90% confluence. The flasks were then washed with PBS and harvested in 0.25% trypsin, 1 mM EDTA. The cells were pelleted by gentle centrifugation and stored at −20° C. until assay.
Competition Binding Assay
Binding studies with [^3H]resiniferatoxin (RTX) were carried out as described previously with minor modifications (Szallasi et al., 1992). Binding assay mixtures were set up on ice and contained 50-100 pM [^3H]RTX, various concentrations of competing ligands, 0.25 mg/mL BSA (Cohn fraction V), and about 5×10^5 VR1-transfected cells. The final volume was adjusted to 350 μL with DPBS with Ca^2+ and Mg^2+ and 0.25 mg/mL bovine serum albumin. Non-specific binding was determined in the presence of 100 nM nonradioactive RTX. The binding reaction was initiated by transferring the assay mixtures to a 37° C. water bath and was terminated after a 60 min incubation period by cooling the tubes on ice. To reduce non-specific binding, 200 μg/ml α-glycoprotein was added. Membrane-bound RTX was then separated from the free by pelleting the membranes in a Beckman 12 benchtop centrifuge (15 min, maximal velocity), the tips of the tubes containing the pellets were cut off, and the radioactivity was determined by scintillation counting. Equilibrium binding parameters (Ki and cooperativity) were determined by fitting the Hill equation to the measured values with the aid of the program MicroCal Origin 6.0.
(§1) Initial stocks were dissolved in DMSO. For the binding assays, compounds were diluted in with DPBS with Ca^2+ and Mg^2+ and 0.25 mg/mL bovine serum albumin. For the calcium uptake assays, compounds were diluted in DMEM with 0.25 mg/mL bovine serum albumin.

Data set [2] has as its target T1, rat VR1. Description: 45Ca2+-uptake assay in CHO/VR1 cells, antagonism of capsaicin-stimulated uptake. In kind it is cell-based. The conditions noted are these: 45Ca2+ uptake stimulated by 50 nM capsaicin. The protocol:
as §1
Molecules were characterized to determine whether they were full agonists, partial agonists, or antagonists. For studies of ^45Ca^2+ uptake by CHO/VR1 cells (Tet-off cells), the cells were plated in 24-well plates to yield a cell density 20-40% of that required to produce confluence. The next day the medium was changed to remove the tetracycline and induce VR1 expression. Experiments were performed approximately 36-40 hours after induction. For ^45Ca^2+ uptake assay, cells were incubated for 5 min at 37° C. in a total volume of 400 μL of serum free DMEM (containing 1.8 mM CaCl2) in the presence of 0.25 mg/mL BSA (Sigma), 1 μCi/mL ^45Ca^2+ (5-30 Ci/g from ICN, CA), and increasing concentrations of the compound to be tested. Immediately after the incubation, extracellular ^45Ca^2+ was removed by washing the cells three times with cold DPBS (containing 1.8 mM CaCl2). Then 400 μl RIPA buffer (50 mM Tris pH 7.4; 150 mM NaCl; 1% Triton X-100; 0.1% SDS; 1% sodium deoxycholate) was added to each well in order to lyse the cells. Plates were shaken slowly for 20 min; then 306 μL of cell lysate was transferred from each well into a scintillation vial and radioactivity was determined by scintillation counting. For each data point in each experiment, four wells were assayed. Data from these experiments were analyzed by computer fit to the Hill equation. At least 3 separate experiments were carried out for each compound. In order to determine antagonist activity, studies were performed in exactly the same fashion with the exception that 50 nM capsaicin was added to the assay mixture to stimulate ^45Ca^2+ uptake.

[3] abbreviates: competition with [3H]RTX, rat VR1 in CHO cells, read-out: Ki (nM) Binding Affinity.

T1 sequence (O35433 whole entry): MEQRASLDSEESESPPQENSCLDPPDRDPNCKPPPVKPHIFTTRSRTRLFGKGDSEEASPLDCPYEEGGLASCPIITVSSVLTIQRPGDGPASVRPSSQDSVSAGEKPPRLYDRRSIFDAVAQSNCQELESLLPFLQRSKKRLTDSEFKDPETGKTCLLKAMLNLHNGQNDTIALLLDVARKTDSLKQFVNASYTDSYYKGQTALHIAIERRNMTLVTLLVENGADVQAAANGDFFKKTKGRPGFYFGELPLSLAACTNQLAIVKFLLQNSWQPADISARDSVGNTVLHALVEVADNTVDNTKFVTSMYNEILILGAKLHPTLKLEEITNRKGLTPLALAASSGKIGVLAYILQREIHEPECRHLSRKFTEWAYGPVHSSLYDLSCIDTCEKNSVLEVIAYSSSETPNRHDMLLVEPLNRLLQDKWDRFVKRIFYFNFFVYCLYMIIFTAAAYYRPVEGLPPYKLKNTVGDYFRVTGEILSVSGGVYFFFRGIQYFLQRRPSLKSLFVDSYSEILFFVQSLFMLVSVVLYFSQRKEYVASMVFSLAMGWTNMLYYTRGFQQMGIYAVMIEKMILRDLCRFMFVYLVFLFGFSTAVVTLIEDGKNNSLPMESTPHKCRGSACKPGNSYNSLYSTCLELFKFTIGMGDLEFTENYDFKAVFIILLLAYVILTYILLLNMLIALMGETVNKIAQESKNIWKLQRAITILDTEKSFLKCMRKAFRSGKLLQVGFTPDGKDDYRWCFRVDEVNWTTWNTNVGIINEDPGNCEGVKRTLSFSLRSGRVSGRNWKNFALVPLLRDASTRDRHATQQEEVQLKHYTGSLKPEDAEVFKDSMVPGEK

A word on the Ki: it is the dissociation constant of the complex between target and ligand, obtained from inhibition or displacement. The melting point is the temperature of the solid-liquid transition. Consider `C[C@H](NC(=S)NCc1ccc(C(C)(C)C)cc1)c1ccc(NS(C)(=O)=O)cc1` [16-6, N-(4-t-Butylbenzyl)-N′-{(1S)-1-[4-(methylsulfonylamino)phenyl]ethyl}thiourea], for which the melting point came out at 101 °C. At rat VR1 [1], this compound registered a Ki of 3590 nM.
“N-{1-[3-Fluoro-4-(methylsulfonylamino)phenyl]ethyl}-3-(4-chlorophenyl)propenamide [24-6]”: the affinity on rat VR1 [2], expressed as Ki, was 5650 nM.
Turning to `Cc1ccc(CNC(=O)C(C)c2ccc(NS(C)(=O)=O)c(F)c2)cc1` (centres unmarked) [4-7, N-(4-Methylbenzyl)-2-[3-fluoro-4-(methylsulfonylamino)phenyl]propionamide], the melting point is 166 °C.
Take `COc1ccc(CNC(=O)C(C)c2ccc(NS(C)(=O)=O)c(F)c2)cc1` (centres unmarked) [4-9, N-(4-Methoxybenzyl)-2-[3-fluoro-4-(methylsulfonylamino)phenyl]propionamide]: the melting point was 138 °C. Besides, affinity on rat VR1 [2] was put at a Ki of 1350 nM.
The compound `Cc1ccc(CCC(=O)NC(C)c2ccc(NS(C)(=O)=O)c(F)c2)cc1C` (centres unmarked) [24-4, N-{1-[3-Fluoro-4-(methylsulfonylamino)phenyl]ethyl}-3-(3,4-dimethylphenyl)propanamide] yielded a melting point of 176 to 177 °C. Also, the Ki on rat VR1 [2] came to 4130 nM.
The compound `CC(C(=O)NCc1ccc(C(C)(C)C)cc1)c1ccc(NS(C)(=O)=O)c(N2CCCCC2)c1` (centres unmarked) [1-61, N-(4-tert-Butylbenzyl)-2-[3-piperidino-4-(methylsulfonylamino)phenyl]propionamide] displayed a melting point of 125 °C.
Compound `CC(C(=O)NCc1ccc(C(C)(C)C)cc1)c1ccc(NS(C)(=O)=O)c(N2CCN(C(=O)OC(C)(C)C)CC2)c1` (centres unmarked) [1-63, N-(4-tert-Butylbenzyl)-2-[3-(N-boc)piperazino-4-(methylsulfonylamino)phenyl]propionamide] came in with a melting point of 103 °C.
The compound `CC(C(=O)NCC=Cc1ccc(Cl)cc1)c1ccc(NS(C)(=O)=O)c(F)c1` (centres unmarked) [4-20, N-[3-(4-Chlorophenyl)-2-propenyl]-2-[3-fluoro-4-(methylsulfonylamino)phenyl]propionamide] returned a melting point of 151 to 153 °C.
`CC(NC(=S)NC(COC(=O)C(C)(C)C)Cc1ccccc1)c1ccc(NS(C)(=O)=O)cc1` [19-15, N-[(2R)-3-phenyl-1-pivaloyloxy-2-propyl]-N′-[(S)-α-methyl-4-(methylsulfonylamino)benzy]thiourea] returned a melting point of 61 to 64 °C.
Consider `CC(C(=O)NCc1ccc(C(C)(C)C)cc1)c1ccc(NS(C)(=O)=O)c(C(=O)NCc2ccccc2)c1` (centres unmarked) [1-60, N-(4-tert-Butylbenzyl)-2-[3-(benzylamino)carbonyl-4-(methylsulfonylamino)phenyl]propionamide], for which the melting point was 79 to 81 °C. Further, on rat VR1 [1] (setting [3]), the Ki turned out to be 3710 nM.
Regarding `CC(C(=O)NOCc1ccccc1)c1ccc(NS(C)(=O)=O)c(F)c1` (centres unmarked) [4-21, N-Benzyloxy-2-[3-fluoro-4-(methylsulfonylamino)phenyl]propionamide], the melting point lay within 182 to 183 °C. Further, the Ki at rat VR1 [1] (setting [3]) was determined as 9420 nM.
Turning to `CC(C(=O)NCc1ccc(C(C)(C)C)cc1)c1ccc(NS(C)(=O)=O)c(N2CCOCC2)c1` (centres unmarked) [1-62, N-(4-tert-Butylbenzyl)-2-[3-morpholino-4-(methylsulfonylamino)phenyl]propionamide], the melting point stood at 78 °C.
Turning to `CC(C(=O)NCc1ccc(C(C)(C)C)cc1)c1ccc(NS(C)(=O)=O)c(N2CCNCC2)c1` (centres unmarked) [1-64, N-(4-tert-Butylbenzyl)-2-[3-piperazino-4-(methylsulfonylamino)phenyl]propionamide], the melting point is 92 °C.
On the same count and under the same terms, with `CC(C(=O)NCCCc1ccc(Cl)cc1)c1ccc(NS(C)(=O)=O)c(F)c1` (centres unmarked) [4-19, N-[3-(4-Chlorophenyl)propyl]-2-[3-fluoro-4-(methylsulfonylamino)phenyl]propionamide] the figure was 141 to 143 °C; with `CC(C(=O)NCc1ccc(C(C)(C)C)cc1)c1ccc(NS(C)(=O)=O)c(C(=O)O)c1` (centres unmarked) [1-58, N-(4-tert-Butylbenzyl)-2-[3-carboxyl-4-(methylsulfonylamino)phenyl]propionamide], 180 to 183 °C.
Compound `CC(C(=O)NCC=C(c1ccccc1)c1ccccc1)c1ccc(NS(C)(=O)=O)c(F)c1` (centres unmarked) [4-25, N-(3,3-Diphenyl-2-propenyl)-2-[3-fluoro-4-(methylsulfonylamino)phenyl]propionamide] gave a melting point of 155 to 157 °C.
`COc1cc(C(C)C(=O)NCC(COC(=O)C(C)(C)C)Cc2ccc(C(C)(C)C)cc2)ccc1NS(C)(=O)=O` (centres unmarked) [5-6, N-[2-(4-tert-Butylbenzyl)-3-pivaloyloxypropyl]-2-[3-methoxy-4-(methylsulfonylamino)phenyl]propionamide] yielded a melting point of 54 to 57 °C. Besides, on rat VR1 [1] (setting [3]), the Ki worked out at 24 nM.
In the case of `CC(NC(=O)C=Cc1ccc(C(C)(C)C)cc1)c1ccc(NS(C)(=O)=O)c(F)c1` (centres unmarked) [24-3, N-{1-[3-Fluoro-4-(methylsulfonylamino)phenyl]ethyl}-3-(4-tert-butylphenyl)-2-propenamide], the melting point was in the range of 154 to 156 °C.
`Cc1ccc(CCCNC(=O)C2(c3ccc(NS(C)(=O)=O)c(F)c3)CC2)cc1C` [12-5, N-[3-(3,4-Dimethylphenyl)propyl]-1-[3-fluoro-4-(methylsulfonylamino)phenyl]cyclopropanecarboxamide] displayed a melting point of 127 to 128 °C.
Same read-out and setting: with `CC(C)(C)c1ccc(CNC(=O)C2(c3ccc(NS(C)(=O)=O)c(F)c3)CC2)cc1` [12-8, N-(4-tert-Butylbenzyl)-1-[3-fluoro-4-(methylsulfonylamino)phenyl]cyclopropanecarboxamide] the figure was 200 to 203 °C.
`CC(C(=O)NCc1ccc(C(C)(C)C)cc1)c1ccc(NS(C)(=O)=O)c(C(=O)OC(C)(C)C)c1` (centres unmarked) [1-57, N-(4-tert-Butylbenzyl)-2-[3-(t-butoxycarbonyl)-4-(methylsulfonylamino)phenyl]propionamide]: the melting point lay within 75 to 77 °C. Moreover, the Ki on rat VR1 [1] (setting [3]) is 6730 nM.
Consider `C[C@H](C(=O)N[C@H](COC(=O)C(C)(C)C)Cc1ccccc1)c1ccc(NS(C)(=O)=O)c(F)c1` [6-2, N—[(S)-1-Benzyl-2-(pivaloyloxy)ethyl]-(S)-2-[3-fluoro-4-(methylsulfonylamino)phenyl]propionamide], for which the melting point lay within 125 to 126 °C.
As for `CC(NC(=S)NCc1ccc(C(C)(C)C)cc1)c1ccc(NS(C)(=O)=O)c(C(=O)O)c1` (centres unmarked) [15-5, N-(4-t-Butylbenzyl)-N′-{1-[3-carboxy-4-(methylsulfonylamino)phenyl]ethyl}thiourea], the melting point lay within 189 to 192 °C. The same compound returned a Ki on rat VR1 [1] of 2770 nM.
`CC(C(=O)NC(c1ccccc1)c1ccccc1)c1ccc(NS(C)(=O)=O)c(F)c1` (centres unmarked) [4-22, N-Benzhydryl-2-[3-fluoro-4-(methylsulfonylamino)phenyl]propionamide] had a melting point of 160 to 161 °C. Moreover, at rat VR1 [1] (setting [3]), the Ki is 5860 nM.
With `CC(C(=O)NC1CCCc2ccccc21)c1ccc(NS(C)(=O)=O)c(F)c1` (centres unmarked) [4-13, N-(1,2,3,4-Tetrahydro-1-naphthalenyl)-2-[3-fluoro-4-(methylsulfonylamino)phenyl]propionamide], the melting point lay in the range of 116 to 117 °C.
Consider `Cc1ccc(C=CCNC(=O)C(C)c2ccc(NS(C)(=O)=O)c(F)c2)cc1C` (centres unmarked) [4-18, N-[3-(3,4-Dimethylphenyl)-2-propenyl]-2-[3-fluoro-4-(methylsulfonylamino)phenyl]propionamide], for which the melting point fell in the range of 144 to 146 °C.

(Values after patent US8642657B2 (Gruenenthal GmbH, priority 2003, dated 2014).)
